Assay: physical and chemical stability under standard stability conditions
Format: physicochemical
Method: In another aspect of the present disclosure, the crystalline form DP-9 of Daprodustat which is physically & chemically stable under standard stability conditions like 25° C.-60% RH, 40° C.-75% RH and 2-8° C. for at least 3 months.

Measured: physically & chemically stable for at least

O=C(O)CNC(=O)C1C(=O)N(C2CCCCC2)C(=O)N(C2CCCCC2)C1=O [Form DP-9]
at least 3 months: 2-8° C. | 25° C.-60% RH | 40° C.-75% RH

Reference: patent US20240368090A1, “SOLID STATE FORMS OF D[…] PROCESS FOR THEIR PREPARATION” (REDDY’S LABORATORIES LIMITED, priority 2023, published 2024)
